Assay [1] relates to Leishmania donovani axenic amastigote parasites. The experiment in a line: Leishmania donovani axenic amastigote proliferation assay. Format: cell-based. The procedure: Leishmania Donovani Axenic Amastigote Proliferation Assay
Leishmania donovani axenic amastigote parasites are grown at 37° C., 5% CO2 in media made of RPMI 1640, 4 mM L-glutamine, 20% heat inactivated FBS, 100 units/ml of penicillin and 100 μg/ml of streptomycin, 23 μM Folic Acid, 100 μM Adenosine, 22 mM D-glucose, 25 mM MES. The pH of media is adjusted to 5.5 at 37° C. using HCl. 20 μL of media is first dispensed into 384 well plates and 100 nL of the compounds of invention in DMSO are added to the plate wells. At the same time control compounds and DMSO are added to plates to serve as the positive and negative controls, respectively. 40 μL of parasite culture (9600 parasites) are then added to the plate wells. The plates are then placed into incubators. After 2 day incubation, 20 μL of Cell TiterGlo (Promega) is added to the plate wells. The luminescence signal of each well is measured using the Envision reader (Perkin Elmer). The percentage inhibition of 50%, EC50, is calculated for each of the compounds.

Assay [2] has as its system L. donovani HU3 strain in mouse peritoneal macrophages. Kind of assay: Assay for proliferation of Leishmania parasites in mouse peritoneal macrophages. The following applies: Leishmania donovani, Peritoneal macrophage, read-out: L. donavani Macrophage EC50. The class given is cell-based, Leishmania donovani. An excerpt: Assay for Proliferation of Leishmania Parasites
The activity of a compound according to the present invention for inhibition of parasitemai can be assessed by the parasite proliferation assay. The assay measures the increase in the parasite number in the assayed plate well using a DNA intercalating dye, SYBR Green I® dye (INVITROGEN) to stain Leishmania cell nuclei. It is understood that the assays illustrate the invention without in any way limiting the scope of the invention.
L. donovani HU3 strain is propagated by infecting BALB/c mice through tail vein injection with 10^7 Leishmania parasites. Infected mice are allowed to develop infection during 9-11 weeks post-infection. During this time, the parasites accumulate in the infected mouse spleens to large numbers, and the infected mice serve as the source of parasites for the in vitro measurement of compound efficacies. To assay a compound for anti-leishmanial activity, peritoneal macrophages isolated from non-infected BALB/c mice are seeded into 384-well plates at density 2×10^4 macrophages per well in […] of medium (RPMI 1640, 10% […], 10 mM HEPES, 1 mM sodium pyruvate, 1% Pen/Strep). Subsequently, the seeded plates are placed into an incubator set to maintain 37° C. temperature and atmosphere with 5% CO2. The next day, Leishmania parasites are isolated from the spleens of mice infected for 9-11 weeks and 4×10^5 isolated parasites in […] of the above media are added to each plate well. Plates are then returned into incubators and infection is allowed to proceed for 24 hours. After the infection of macrophages is completed, […] of compounds of the invention in the above medium, which also contains 5% DMSO, are added to plate wells containing infected macrophages. At the same time control compounds (miltefosine and amphotericin B) and DMSO are added to plates to serve as the positive and negative controls, respectively. After the compound addition, the plates are returned into incubator and cells infected with parasites are cultured for 5 days. At the end of cultivation, […] of 8% paraformaldehyde is added to plate wells and incubated for 15 min at room temperature. Following the incubation, the paraformaldehyde from plate wells is aspirated, and […] of PBS containing 0.2% Triton X-100 is added to wells. After 15 min incubation, the solution is aspirated from wells again, and replaced with SybrGreen Dye solution in PBS (1:125,000 dilution). Infected cells are imaged with Evotec Opera high-content microscope, and the number of parasites in well is determined by counting parasite nuclei visualized by staining with SybrGreen dye. The percentage inhibition of 50%, EC50, is calculated for each compound.
The inhibitory efficacy of the compounds of the invention in delaying the proliferation of L. donovani in mouse peritoneal macrophages is provided in Table I, infra.

Where [3] appears, read: axenic amastigotes in vitro, read-out: L. donovani amastigotes EC50.

This passage reports EC50 results from patent publication US9233961B2, “Compounds and compositions for the treatment of parasitic diseases” (Novartis AG, priority 2013, dated 2016).

Where two headings read alike, the source gives them in different places.

As to `O=C(Nc1ccc(F)c(-c2nc3ncc(-c4ccccc4)cc3[nH]2)c1)N1CCCC1` [Example 309, N-(4-fluoro-3-{6-phenyl-1H-imidazo[4,5-b]pyridin-2-yl}phenyl)pyrrolidine-1-carboxamide], the concentration giving a half-maximal response (EC50) in assay [1] (setting [3]) was 1.97 µM; in assay [2], 4.5 µM.
As for `CC(C)c1nnc(C(=O)Nc2ccc(F)c(-c3nc4ncc(Br)cc4o3)c2)o1` [Compound 406], the EC50 in assay [1] (setting [3]) is above 25 µM; in assay [2] it was above 50 µM.
Consider `Cc1cc2[nH]c(-c3cc(NC(=O)c4ccco4)ccc3Cl)nc2nc1C` [Compound 5], for which the EC50 in assay [1] (setting [3]) is above 25 µM; in assay [2], 49.4 µM.
Taken in the same sequence, the figures for `O=C(Nc1ccc(Cl)c(-c2nc3ncc(C(F)(F)F)cc3[nH]2)c1)c1cncc(F)c1` [Compound 283] were 4 µM and 11.4 µM.
Taken in the same sequence, the figures for `N#Cc1ccc(C(=O)Nc2ccc(Cl)c(-c3nc4ncc(C(F)(F)F)cc4[nH]3)c2)o1` [Compound 281] were 1.98 µM and 6.3 µM.
Take `O=C(Nc1cccc(-c2nc3ncc(-c4ccc(OC(F)(F)F)cc4)cc3[nH]2)c1)c1ccco1` [Compound 41]: the figures for the EC50 in assay [1] (setting [3]) and in assay [2] were 5.9 µM and 2.2 µM, respectively.
Taken in the same sequence, the figures for `O=C(Nc1ccc(Cl)c(-c2nc3ncc(-c4ccc(CN5CCOCC5)cc4)cc3[nH]2)c1)c1ccco1` [Compound 16] were 2.07 µM and 1.63 µM.
`Cc1cnc2nc(-c3cc(NC(=O)Nc4ccc(C(F)(F)F)cc4)ccc3Cl)[nH]c2c1` [Compound 248]: the EC50 was above 25 µM in assay [1] (setting [3]) and 23.1 µM in assay [2].
As to `O=C(Nc1ccc(Cl)c(-c2nc3ncc(-c4ccc(N5CCCC5)cc4)cc3[nH]2)c1)c1ccco1` [Compound 68], the EC50 in assay [1] (setting [3]) came to 2.85 µM; in assay [2] it was 4.9 µM.
In the case of `CCN(CC)C(=O)Nc1ccc(F)c(-c2nc3ncc(Cl)cc3[nH]2)c1` [Compound 355], the half-maximal effective concentration (EC50) in assay [1] (setting [3]) was above 25 µM; in assay [2] it was above 50 µM.
For the compound `CC(C)OC(=O)Nc1ccc(Cl)c(-c2nc3ncc(-c4ccccc4NC(=O)OC(C)C)cc3n2C(=O)OC(C)C)c1` [Compound 336], the values for the 50% effective concentration (EC50) in assay [1] (setting [3]) and in assay [2] were 1.89 µM and 2.18 µM, respectively.
As for `O=C(CCN1CCCCC1)Nc1ccc(F)c(-c2nc3ncc(Cl)cc3[nH]2)c1` [Compound 359], the values for the concentration giving a half-maximal response (EC50) in assay [1] (setting [3]) and in assay [2] were above 25 µM and above 35.3 µM, respectively.
Take `Cc1cnc2nc(-c3cc(NC(=O)c4ccnnc4)ccc3Cl)[nH]c2c1` [Compound 92]: the EC50 in assay [1] (setting [3]) is above 20 µM; in assay [2], above 50 µM.
On to `O=C(Nc1ccc(Cl)c(-c2nc3ncc(C(F)(F)F)cc3[nH]2)c1)c1ccco1` [Example 276, N-{4-Chloro-3-[6-(trifluoromethyl)-1H-imidazo[4,5-b]pyridin-2-yl]phenyl}furan-2-carboxamide], for which the results for the half-maximal effective concentration (EC50) in assay [1] (setting [3]) and in assay [2] were 1.56 µM and 6 µM, respectively.
For the compound `O=C(Nc1ccc(F)c(-c2nc3ncc(Br)cc3o2)c1)c1cnco1` [Compound 408], the EC50 in assay [1] (setting [3]) is 3.8 µM; in assay [2] it was above 50 µM.
The corresponding values for `Cc1cnc2nc(-c3cc(NC(=O)c4ccc(OCCN(C)C)cc4)ccc3F)[nH]c2c1` [Compound 269] are above 25 µM and above 50 µM.
Regarding `Cc1cnc2nc(-c3cc(NC(=O)CCN)ccc3F)[nH]c2c1` [Compound 268], the EC50 in assay [1] (setting [3]) was above 25 µM; in assay [2], above 50 µM.
On to `O=C(Nc1ccc(F)c(-c2nc3ncc(Br)cc3[nH]2)c1)c1cc[nH]n1` [Compound 368], for which the 50% effective concentration (EC50) in assay [1] (setting [3]) was 18.9 µM; in assay [2], above 50 µM.
On to `O=C(Nc1ccc(Cl)c(-c2nc3ncc(-c4ccc(N5CCNCC5)cc4)cc3[nH]2)c1)N1CCCC1` [Compound 294], for which the 50% effective concentration (EC50) was above 25 µM in assay [1] (setting [3]) and 16.9 µM in assay [2].
As to `Nc1ccc(-c2cnc3nc(-c4cc(NC(=O)Nc5ccc(C(F)(F)F)cc5)ccc4F)oc3c2)cn1` [Compound 400], the half-maximal effective concentration (EC50) in assay [1] (setting [3]) came out at 1.62 µM; in assay [2] it was 4 µM.
Consider `CN(C)c1ccc(-c2cnc3nc(-c4cc(NC(=O)c5ccco5)ccc4Cl)[nH]c3c2)cn1` [Compound 65], for which the results for the EC50 in assay [1] (setting [3]) and in assay [2] were 0.197 µM and 1.58 µM, respectively.
`Cc1cnc2nc(-c3cc(NC(=O)c4occc4C)ccc3Cl)[nH]c2c1` [Compound 130]: the concentration for a half-maximal effect (EC50) in assay [1] (setting [3]) was 2.01 µM; in assay [2] it was 15.7 µM.
Turning to `Cc1cnc2nc(-c3cc(NC(=O)Cc4cc(C)no4)ccc3Cl)[nH]c2c1` [Compound 88], the concentration giving a half-maximal response (EC50) was above 25 µM in assay [1] (setting [3]) and above 50 µM in assay [2].
Consider `CNc1ccc(-c2cnc3nc(-c4cc(NC(=O)N5CCCC5)ccc4Cl)[nH]c3c2)cc1` [Compound 292, N-(4-chloro-3-{6-[4-(methylamino)phenyl]-1H-imidazo[4,5-b]pyridin-2-yl}phenyl)pyrrolidine-1-carboxamide], for which the EC50 was around 0.08 µM in assay [1] (48 h, L. donovani axenic amastigotes, 2 day incubation, Cell TiterGlo luminescence, read-out: EC50); 0.08 µM in assay [1] (setting [3]); 0.17 µM in assay [2].
Turning to `COCCOc1ccc(-c2cnc3nc(-c4cc(NC(=O)c5ccco5)ccc4Cl)[nH]c3c2)cc1` [Compound 60], the concentration giving a half-maximal response (EC50) stood at 0.8 µM in assay [1] (setting [3]) and 3.5 µM in assay [2].
Taken in the same sequence, the figures for `COc1ccc(C(=O)Nc2ccc(Cl)c(-c3nc4ncc(C)cc4[nH]3)c2)cc1` [Compound 211] were above 22.8 µM and above 27.9 µM.
For `Cc1cnc2nc(-c3cc(NC(=O)c4ccns4)ccc3Cl)[nH]c2c1` [Compound 91], the EC50 in assay [1] (setting [3]) worked out at 3.2 µM; in assay [2], 5.6 µM.
Taken in the same sequence, the figures for `O=C(Nc1ccc(C(F)(F)F)cc1)Nc1ccc(F)c(-c2nc3ncc(-c4ccc(CCN5CCOCC5)cc4)cc3o2)c1` [Example 389, 3-[4-Fluoro-3-(6-{4-[2-(morpholin-4-yl)ethyl]phenyl}-[3]oxazolo[4,5-b]pyridin-2-yl)phenyl]-1-[4-(trifluoromethyl)phenyl]urea] were 11.6 µM and 11.4 µM.
Take `O=C(Nc1ccc(Cl)c(-c2nc3ncc(-c4ccc(OC(F)(F)F)cc4)cc3[nH]2)c1)c1ccco1` [Compound 25]: the figures for the 50% effective concentration (EC50) in assay [1] (setting [3]) and in assay [2] were 5.6 µM and 9.5 µM, respectively.
The corresponding values for `CC(C)OC(=O)Nc1ccc(-c2cnc3nc(-c4cc(NC(=O)Nc5ccc(C(F)(F)F)cc5)ccc4F)oc3c2)cc1` [Compound 396] are 16.1 µM and above 50 µM.
With `CN(C)Cc1ccc(C(=O)Nc2ccc(Cl)c(-c3nc4ncc(Br)cc4[nH]3)c2)o1` [Example 372, N-(3-{6-bromo-1H-imidazo[4,5-b]pyridin-2-yl}-4-chlorophenyl)-5-[(dimethylamino)methyl]furan-2-carboxamide], the EC50 in assay [1] (setting [3]) is above 25 µM; in assay [2], 2.52 µM.
In the case of `CCOc1cc(C(=O)Nc2ccc(Cl)c(-c3nc4ncc(C)cc4[nH]3)c2)ccn1` [Compound 93], the EC50 is above 25 µM in assay [1] (setting [3]) and above 35.5 µM in assay [2].
With `CN(C)c1ccc(-c2cnc3nc(-c4cc(NC(=O)Nc5ccc(C(F)(F)F)cc5)ccc4F)oc3c2)cc1` [Compound 390], the EC50 in assay [1] (setting [3]) was determined as 12.6 µM; in assay [2] it was 18.2 µM.
For the compound `COc1cc(C(=O)Nc2ccc(Cl)c(-c3nc4ncc(C)cc4[nH]3)c2)ccn1` [Compound 129], the figures for the EC50 in assay [1] (setting [3]) and in assay [2] were above 25 µM and 27.4 µM, respectively.
For `Cc1cnc2nc(-c3cc(NC(=O)c4cncc(C#N)c4)ccc3Cl)[nH]c2c1` [Compound 101], the EC50 in assay [1] (setting [3]) is 13.5 µM; in assay [2] it was above 50 µM.
The corresponding values for `Nc1ncc(-c2cnc3nc(-c4cc(NC(=O)c5ccco5)ccc4Cl)[nH]c3c2)cn1` [Compound 17] are 0.48 µM and 1.57 µM.
